According to PMC9814838, “The orphan nuclear receptor Nurr1 is responsive to non-steroidal anti-inflammatory drugs” (Communications Chemistry, 2020):

Assays:
Type in all cases: cell-based
Nurr1 = target: T1, Nurr1 (Homo sapiens, UniProt P43354); test: Gal4-Nurr1 hybrid reporter gene assay in HEK293T cells; conditions: for Nurr1 activity 10μM (mean fold activation) / Nurr1 activity 30μM (mean fold activation): primary screen, n ≥ 2, ^# not significant vs VP16 control
T1 construct: Nurr1 (uniprot entry: hNURR1–P43354, residues 360–598); expressed in transfected cells; host or cells: HEK293T

Nur77 = target: T2, Nur77 (Homo sapiens, UniProt P22736); test: Gal4-Nur77 hybrid reporter gene assay in HEK293T cells; conditions: for Nur77 activity 10μM (mean fold activation) / Nur77 activity 30μM (mean fold activation): primary screen, n ≥ 2, ^# not significant vs VP16 control
T2 construct: Nur77 (uniprot entry: hNUR77–P22736, residues 358–598); expressed in transfected cells; host or cells: HEK293T

NOR1 = target: T3, NOR1 (Homo sapiens, UniProt Q92570); test: Gal4-NOR1 hybrid reporter gene assay in HEK293T cells; conditions: for Nor1 activity 10μM (mean fold activation) / Nor1 activity 30μM (mean fold activation): primary screen, n ≥ 2, ^# not significant vs VP16 control
T3 construct: NOR1 (isoform alpha; uniprot entry: hNOR1–Q92570-1, residues 393–626); expressed in transfected cells; host or cells: HEK293T
T3 sequence (Q92570 393-626): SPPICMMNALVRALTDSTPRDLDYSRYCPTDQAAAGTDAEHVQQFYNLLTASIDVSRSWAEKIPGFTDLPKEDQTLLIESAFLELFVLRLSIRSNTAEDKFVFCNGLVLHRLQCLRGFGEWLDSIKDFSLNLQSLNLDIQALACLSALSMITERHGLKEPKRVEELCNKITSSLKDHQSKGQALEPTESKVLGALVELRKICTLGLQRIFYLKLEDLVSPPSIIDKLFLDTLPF

[1] = dash = not reported as active versus VP16 control (p < 0.05)
[2] = compared to 0.1% DMSO, mean ± SD

T2 sequence (P22736 358-598): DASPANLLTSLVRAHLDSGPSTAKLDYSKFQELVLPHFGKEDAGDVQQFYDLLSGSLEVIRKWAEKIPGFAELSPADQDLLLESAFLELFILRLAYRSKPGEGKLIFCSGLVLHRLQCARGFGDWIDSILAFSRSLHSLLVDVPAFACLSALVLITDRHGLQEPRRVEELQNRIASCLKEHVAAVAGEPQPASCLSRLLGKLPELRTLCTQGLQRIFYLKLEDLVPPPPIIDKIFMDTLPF
T1 sequence (P43354 360-598): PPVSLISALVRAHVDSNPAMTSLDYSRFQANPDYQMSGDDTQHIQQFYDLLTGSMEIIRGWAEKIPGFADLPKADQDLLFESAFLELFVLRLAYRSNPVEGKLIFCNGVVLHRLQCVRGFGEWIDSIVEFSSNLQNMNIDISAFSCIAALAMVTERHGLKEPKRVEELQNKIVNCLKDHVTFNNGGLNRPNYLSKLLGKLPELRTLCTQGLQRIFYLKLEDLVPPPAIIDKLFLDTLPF

SMILES: Cc1c(Nc2ncccc2C(=O)O)cccc1C(F)(F)F [flunixin]
- Nurr1 activity 10μM (mean fold activation) (Nurr1): toxic
- Nurr1 activity 30μM (mean fold activation) (Nurr1): toxic
- Nur77 activity 10μM (mean fold activation) (Nur77): toxic
- Nur77 activity 30μM (mean fold activation) (Nur77): toxic
- Nor1 activity 10μM (mean fold activation) (NOR1): toxic
- Nor1 activity 30μM (mean fold activation) (NOR1): toxic

SMILES: O=C(O)c1ccccc1O [salicylic acid]
- Nurr1 activity 10μM (mean fold activation) (Nurr1): 1.08 fold
- Nurr1 activity 30μM (mean fold activation) (Nurr1): 1.02 fold
- Nur77 activity 10μM (mean fold activation) (Nur77): 1.06 fold
- Nur77 activity 30μM (mean fold activation) (Nur77): 1.02 fold
- Nor1 activity 10μM (mean fold activation) (NOR1): 1.01 fold
- Nor1 activity 30μM (mean fold activation) (NOR1): 0.99 fold

SMILES: O=C(OCCOCCO)c1ccccc1Nc1cccc(C(F)(F)F)c1 [etofenamate]
- Nurr1 activity 10μM (mean fold activation) (Nurr1): 0.97 fold
- Nurr1 activity 30μM (mean fold activation) (Nurr1): toxic
- Nur77 activity 10μM (mean fold activation) (Nur77): 0.84 fold
- Nur77 activity 30μM (mean fold activation) (Nur77): toxic
- Nor1 activity 10μM (mean fold activation) (NOR1): 1.07 fold
- Nor1 activity 30μM (mean fold activation) (NOR1): toxic

SMILES: CS(=O)(=O)c1ccc(C2=C(c3ccccc3)C(=O)OC2)cc1 [rofecoxib]
- Nurr1 activity 10μM (mean fold activation) (Nurr1): 1.02 fold
- Nurr1 activity 30μM (mean fold activation) (Nurr1): 0.92 fold
- Nur77 activity 10μM (mean fold activation) (Nur77): 0.93 fold
- Nur77 activity 30μM (mean fold activation) (Nur77): 0.91 fold
- Nor1 activity 10μM (mean fold activation) (NOR1): 0.95 fold
- Nor1 activity 30μM (mean fold activation) (NOR1): 1.01 fold

SMILES: CN1C(C(=O)Nc2ccccn2)=C(O)c2ccccc2S1(=O)=O [piroxicam]
- Nurr1 activity 10μM (mean fold activation) (Nurr1): 0.98 fold
- Nurr1 activity 30μM (mean fold activation) (Nurr1): 0.98 fold
- Nur77 activity 10μM (mean fold activation) (Nur77): 1.03 fold
- Nur77 activity 30μM (mean fold activation) (Nur77): 0.92 fold
- Nor1 activity 10μM (mean fold activation) (NOR1): 1.05 fold
- Nor1 activity 30μM (mean fold activation) (NOR1): 1.01 fold

SMILES: Cc1cccc(Nc2ccccc2C(=O)O)c1C [mefenamic acid]
- Nurr1 activity 10μM (mean fold activation) (Nurr1): 0.90 fold
- Nurr1 activity 30μM (mean fold activation) (Nurr1): 0.86 fold
- Nur77 activity 10μM (mean fold activation) (Nur77): 0.80 fold
- Nur77 activity 30μM (mean fold activation) (Nur77): toxic
- Nor1 activity 10μM (mean fold activation) (NOR1): 0.95 fold
- Nor1 activity 30μM (mean fold activation) (NOR1): toxic

SMILES: Cc1c(Cl)cccc1Nc1ccccc1C(=O)O [tolfenamic acid]
- Nurr1 activity 10μM (mean fold activation) (Nurr1): 1.18 fold
- Nurr1 activity 30μM (mean fold activation) (Nurr1): toxic
- Nur77 activity 10μM (mean fold activation) (Nur77): toxic
- Nur77 activity 30μM (mean fold activation) (Nur77): toxic
- Nor1 activity 10μM (mean fold activation) (NOR1): toxic
- Nor1 activity 30μM (mean fold activation) (NOR1): toxic

SMILES: O=C(O)Cc1ccccc1Nc1c(Cl)cccc1Cl [diclofenac]
- Nurr1 activity 10μM (mean fold activation) (Nurr1): 1.19 fold
- Nurr1 activity 30μM (mean fold activation) (Nurr1): toxic
- Nur77 activity 10μM (mean fold activation) (Nur77): 0.94 fold
- Nur77 activity 30μM (mean fold activation) (Nur77): toxic
- Nor1 activity 10μM (mean fold activation) (NOR1): 1.11 fold
- Nor1 activity 30μM (mean fold activation) (NOR1): toxic

SMILES: NC(=O)Cc1cccc(C(=O)c2ccccc2)c1N [nepafenac]
- Nurr1 activity 10μM (mean fold activation) (Nurr1): 1.02 fold
- Nurr1 activity 30μM (mean fold activation) (Nurr1): 0.92 fold
- Nur77 activity 10μM (mean fold activation) (Nur77): 0.98 fold
- Nur77 activity 30μM (mean fold activation) (Nur77): 0.97 fold
- Nor1 activity 10μM (mean fold activation) (NOR1): 1.09 fold
- Nor1 activity 30μM (mean fold activation) (NOR1): 1.23 fold

SMILES: CN1C(C(=O)Nc2ccccn2)=C(O)c2sc(Cl)cc2S1(=O)=O [lornoxicam]
- Nurr1 activity 10μM (mean fold activation) (Nurr1): 0.93 fold
- Nurr1 activity 30μM (mean fold activation) (Nurr1): 0.86 fold
- Nurr1 activity in words or dash (Nurr1; [1]): without affecting Nurr1 activity
- Nur77 activity 10μM (mean fold activation) (Nur77): 0.86 fold
- Nur77 activity 30μM (mean fold activation) (Nur77): 0.64 fold
- IC50 (Nur77; HEK293T, mean ± SD, n≥3): 9.4 ± 6.3 µM
- Nur77 min./max. activation (Nur77; [2]): 0.63 ± 0.09
- Nur77 activity in words or dash (Nur77; [1]): inverse agonism
- Nor1 activity 10μM (mean fold activation) (NOR1): 0.92 fold
- Nor1 activity 30μM (mean fold activation) (NOR1): 0.73 fold
- IC50 (NOR1; HEK293T, mean ± SD, n≥3, read-out: NOR1 IC50): 24 ± 3 µM
- NOR1 min./max. activation (NOR1; [2]): 0.62 ± 0.02
- NOR1 activity in words or dash (NOR1; [1]): inverse agonism

SMILES: Cc1ccc(-c2cc(C(F)(F)F)nn2-c2ccc(S(N)(=O)=O)cc2)cc1 [celecoxib]
- Nurr1 activity 10μM (mean fold activation) (Nurr1): 0.93 fold
- Nurr1 activity 30μM (mean fold activation) (Nurr1): 0.97 fold
- Nur77 activity 10μM (mean fold activation) (Nur77): 0.75 fold
- Nur77 activity 30μM (mean fold activation) (Nur77): toxic
- Nor1 activity 10μM (mean fold activation) (NOR1): 0.92 fold
- Nor1 activity 30μM (mean fold activation) (NOR1): toxic

SMILES: CC(C)Cc1ccc(C(C)C(=O)O)cc1 (stereo not shown) [ibuprofen]
- Nurr1 activity 10μM (mean fold activation) (Nurr1): 1.02 fold
- Nurr1 activity 30μM (mean fold activation) (Nurr1): 0.90 fold
- Nur77 activity 10μM (mean fold activation) (Nur77): 0.99 fold
- Nur77 activity 30μM (mean fold activation) (Nur77): 0.89 fold
- Nor1 activity 10μM (mean fold activation) (NOR1): 0.95 fold
- Nor1 activity 30μM (mean fold activation) (NOR1): 0.96 fold

SMILES: COc1ccc2cc([C@H](C)C(=O)O)ccc2c1 [naproxen]
- Nurr1 activity 10μM (mean fold activation) (Nurr1): 1.14 fold
- Nurr1 activity 30μM (mean fold activation) (Nurr1): 1.15 fold
- Nur77 activity 10μM (mean fold activation) (Nur77): 0.99 fold
- Nur77 activity 30μM (mean fold activation) (Nur77): 1.07 fold
- Nor1 activity 10μM (mean fold activation) (NOR1): 1.09 fold
- Nor1 activity 30μM (mean fold activation) (NOR1): 1.09 fold

SMILES: CC(C(=O)O)c1ccc2c(c1)[nH]c1ccc(Cl)cc12 (stereo not shown) [carprofen]
- Nurr1 activity 10μM (mean fold activation) (Nurr1): 1.10 fold
- Nurr1 activity 30μM (mean fold activation) (Nurr1): 1.19 fold
- Nur77 activity 10μM (mean fold activation) (Nur77): 1.08 fold
- Nur77 activity 30μM (mean fold activation) (Nur77): 0.95 fold
- Nor1 activity 10μM (mean fold activation) (NOR1): 1.17 fold
- Nor1 activity 30μM (mean fold activation) (NOR1): 0.99 fold

SMILES: CC(C(=O)O)c1cccc(C(=O)c2ccccc2)c1 (stereo not shown) [ketoprofen]
- Nurr1 activity 10μM (mean fold activation) (Nurr1): 1.00 fold
- Nurr1 activity 30μM (mean fold activation) (Nurr1): 0.94 fold
- Nur77 activity 10μM (mean fold activation) (Nur77): 1.04 fold
- Nur77 activity 30μM (mean fold activation) (Nur77): 0.88 fold
- Nor1 activity 10μM (mean fold activation) (NOR1): 1.10 fold
- Nor1 activity 30μM (mean fold activation) (NOR1): 0.96 fold

SMILES: O=C(O)c1ccccc1Nc1cccc(C(F)(F)F)c1 [flufenamic acid]
- Nurr1 activity 10μM (mean fold activation) (Nurr1): 1.14 fold
- Nurr1 activity 30μM (mean fold activation) (Nurr1): toxic
- Nur77 activity 10μM (mean fold activation) (Nur77): 0.99 fold
- Nur77 activity 30μM (mean fold activation) (Nur77): toxic
- Nor1 activity 10μM (mean fold activation) (NOR1): 1.36 fold
- Nor1 activity 30μM (mean fold activation) (NOR1): toxic

SMILES: COc1ccc2cc(CCC(C)=O)ccc2c1 [nabumeton]
- Nurr1 activity 10μM (mean fold activation) (Nurr1): 1.44 fold
- Nurr1 activity 30μM (mean fold activation) (Nurr1): 1.46 fold
- Nur77 activity 10μM (mean fold activation) (Nur77): 1.57 fold
- Nur77 activity 30μM (mean fold activation) (Nur77): 1.44 fold
- Nor1 activity 10μM (mean fold activation) (NOR1): 1.69 fold
- Nor1 activity 30μM (mean fold activation) (NOR1): 1.74 fold

SMILES: CCc1cccc2c3c([nH]c12)C(CC)(CC(=O)O)OCC3 (stereo not shown) [etodolac]
- Nurr1 activity 10μM (mean fold activation) (Nurr1): 1.06 fold
- Nurr1 activity 30μM (mean fold activation) (Nurr1): 0.93 fold
- Nur77 activity 10μM (mean fold activation) (Nur77): 0.85 fold
- Nur77 activity 30μM (mean fold activation) (Nur77): 0.90 fold
- Nor1 activity 10μM (mean fold activation) (NOR1): 0.95 fold
- Nor1 activity 30μM (mean fold activation) (NOR1): 0.91 fold

SMILES: CS(=O)(=O)Nc1ccc([N+](=O)[O-])cc1Oc1ccccc1 [nimesulid]
- Nurr1 activity 10μM (mean fold activation) (Nurr1): 1.00 fold
- Nurr1 activity 30μM (mean fold activation) (Nurr1): 0.89 fold
- Nur77 activity 10μM (mean fold activation) (Nur77): 0.90 fold
- Nur77 activity 30μM (mean fold activation) (Nur77): toxic
- Nor1 activity 10μM (mean fold activation) (NOR1): 0.91 fold
- Nor1 activity 30μM (mean fold activation) (NOR1): 0.84 fold

SMILES: CC(C(=O)O)c1ccc2c(c1)CC(=O)c1ccccc1S2 (stereo not shown) [zaltoprofen]
- Nurr1 activity 10μM (mean fold activation) (Nurr1): 0.97 fold
- Nurr1 activity 30μM (mean fold activation) (Nurr1): 0.94 fold
- Nur77 activity 10μM (mean fold activation) (Nur77): 0.80 fold
- Nur77 activity 30μM (mean fold activation) (Nur77): 0.84 fold
- Nor1 activity 10μM (mean fold activation) (NOR1): 0.89 fold
- Nor1 activity 30μM (mean fold activation) (NOR1): 0.84 fold
